From patent publication US4376858A, “2-4-Diamino-5-methyl-6-[(3,4,5-trimethoxyanilino)methyl]quinazoline salts” (Warner Lambert Company, priority 1982, dated 1983)
Structures can show the parent of a compound that is named as a salt.

Assays:
[1] = Solubility of prepared 2,4-diamino-5-methyl-6-[(3,4,5-trimethoxyanilino)methyl]quinazoline salts in water; format: physicochemical; conditions: Table II, Method B: saturated 5.0 ml H2O overnight, filtrate diluted with 0.01 N HCl, 1440 min
[2] = as above; format: physicochemical; conditions: for Solubility in water: Table II, Method A: saturated 2.0 ml H2O overnight, filtrate diluted with methanol, 1440 min; for Filtrate pH / Solubility: Table III, Prepared Salt; for water solubility (in words): qualitative conclusion from Tables I and II
Description: Method A: Saturated 2.0 ml H2 O overnight, 0.5 ml of filtrate diluted to 10.0 ml with methanol, added 1 drop of 6 N KOH to UV cell.

[3] = Solubility of the base 2,4-diamino-5-methyl-6-[(3,4,5-trimethoxyanilino)methyl]quinazoline in aqueous acids (shake-out); format: physicochemical; conditions: for Base Solubility in acid soln.: Table I; for Solubility / Filtrate pH: Table III
neoplasms = conditions: Biochemical Pharmacology 28, 1983-1987; Cancer Research 39, 293-304; cited from earlier work
bacteria = conditions: reported in Great Britain Patent Specification No. 1,345,502; cited from earlier work
malaria = conditions: reported in Great Britain Patent Specification No. 1,345,502; cited from earlier work
[4] = Stability and solid form of the salts; format: physicochemical; conditions: qualitative
[5] = acid conc. .1 M, acid/base 2/1, * not saturated (isethionic, ethoxyacetic)
[6] = 0.1 M acid per method (head: 1 M soln.), 0.05 M base, shaken 4-12 hours, UV 321 nm
[7] = lines marked *: .05 M acid, 1/1 acid/base
[8] = listed as 2,4-diamino-5-methyl-6-[(3,4,5-trimethoxyanilino)methyl]quinazoline glucuronate
[9] = acid conc. .06 M, acid/base 1/1

For `COc1cc(NCc2ccc3nc(N)nc(N)c3c2C)cc(OC)c1OC` [3-Hydroxypropyl sulfonate], the Solubility in water [1] was 4.73 mg base/ml.
`COc1cc(NCc2ccc3nc(N)nc(N)c3c2C)cc(OC)c1OC` [Acetate] gave a Solubility in water [2] of 1.72 mg base/ml.
In the case of `COc1cc(NCc2ccc3nc(N)nc(N)c3c2C)cc(OC)c1OC` [Benzene sulfonate], the “Base Solubility in acid soln.” value ([3]; lines marked *: .05 M acid, 1/1 acid/base, listed as Benzene sulfonic) is reported as 1.89 mg base/ml, the “Base Solubility in acid soln.” value ([3]; 0.1 M acid per method (head: 1 M soln.), 0.05 M base, shaken 4-12 hours, UV 321 nm, listed as Benzene sulfonic) is reported as 7.17 mg base/ml and the Solubility ([3]; acid conc. .05 M, acid/base 1/1, * not saturated (isethionic), listed as Benzene sulfonic) is reported as 1.89 mg base/ml. For the same compound, the “Filtrate pH” value ([3]; acid conc. .05 M, acid/base 1/1, listed as Benzene sulfonic) was 2.95, the Solubility ([3]; acid conc. .1 M, acid/base 2/1, * not saturated (isethionic, ethoxyacetic), listed as Benzene sulfonic) was 7.17 mg base/ml and the “Filtrate pH” value ([3]; acid conc. .1 M, acid/base 2/1, listed as Benzene sulfonic) was 2.95. For the same compound, the Solubility in water [1] was 1.24 mg base/ml, the “Filtrate pH” value ([2]; listed as Benzene sulfonic) was 4.45 and the Solubility ([2]; listed as Benzene sulfonic) was 1.24 mg base/ml.
With `COc1cc(NCc2ccc3nc(N)nc(N)c3c2C)cc(OC)c1OC` [Ethane sulfonate] the Solubility in water [1] was 2.64 mg base/ml.
In the case of `COc1cc(NCc2ccc3nc(N)nc(N)c3c2C)cc(OC)c1OC` [Ethoxyacetate], the “Base Solubility in acid soln.” value ([3]; lines marked *: .05 M acid, 1/1 acid/base, listed as Ethoxyacetic) is reported as 19.7 mg base/ml, the “Base Solubility in acid soln.” value ([3]; 0.1 M acid per method (head: 1 M soln.), 0.05 M base, shaken 4-12 hours, UV 321 nm, listed as Ethoxyacetic) is reported as 19.5 mg base/ml and the Solubility ([3]; acid conc. .065 M, acid/base 1/1, * not saturated) is reported as 19.7 mg base/ml. It also gave a Solubility [3, 5] of 19.5 mg base/ml, a Solubility in water [1] of 6.3 mg base/ml and a Solubility ([2]; listed as Ethoxyacetic) of 6.3 mg base/ml.
In the case of `COc1cc(NCc2ccc3nc(N)nc(N)c3c2C)cc(OC)c1OC` [Free base, 2,4-diamino-5-methyl-6-[(3,4,5-trimethoxyanilino)methyl]quinazoline], the antineoplastic activity (neoplasms) is listed as “exhibit antineoplastic activity”, the antibacterial activity (bacteria) is listed as “exhibiting antimalarial and antibacterial activity” and the antimalarial activity (malaria) is listed as “exhibiting antimalarial and antibacterial activity”. For the same compound, the Solubility in water [1] was 0.1 mg base/ml and the Solubility in water [2] was 0.2 mg base/ml.
For `COc1cc(NCc2ccc3nc(N)nc(N)c3c2C)cc(OC)c1OC` [Galacturonic], the “solid form (in words)” value ([4]; listed as galacturonate) was “undesirable amorphous form” and the “Base Solubility in acid soln.” value [3, 6] was 25.1 mg base/ml.
For `COc1cc(NCc2ccc3nc(N)nc(N)c3c2C)cc(OC)c1OC` [Gentisate], the Solubility in water [1] was 0.28 mg base/ml and the Solubility in water [2] was 1.4-7.06 mg base/ml.
In the case of `COc1cc(NCc2ccc3nc(N)nc(N)c3c2C)cc(OC)c1OC` [Gluconatete], the Solubility in water [1] is reported as 2.55 mg base/ml.
With `COc1cc(NCc2ccc3nc(N)nc(N)c3c2C)cc(OC)c1OC` [Gluconic] the “solid form (in words)” value ([4]; listed as gluconate) was “undesirable amorphous form” and the “Base Solubility in acid soln.” value [3, 7] was 19.8 mg base/ml.
For `COc1cc(NCc2ccc3nc(N)nc(N)c3c2C)cc(OC)c1OC` [Glucuronate, 2,4-Diamino-5-methyl-6-[(3,4,5-trimethoxyanilino)methyl]quinazoline D-glucuronate], the “solid form (in words)” value [4, 8] was “powdery rather than crystalline”, the “Base Solubility in acid soln.” value ([3]; 0.1 M acid per method (head: 1 M soln.), 0.05 M base, shaken 4-12 hours, UV 321 nm, listed as Glucuronic) was 34.35 mg base/ml and the Solubility in water [1] was 109.4 mg base/ml. For the same compound, the “water solubility (in words)” value [2, 8] was “higher degree of solubility”.
In the case of `COc1cc(NCc2ccc3nc(N)nc(N)c3c2C)cc(OC)c1OC` [Glycolic], the “Base Solubility in acid soln.” value [3, 7] is reported as 4.73 mg base/ml, the “Base Solubility in acid soln.” value [3, 6] is reported as 4.13 mg base/ml and the “Filtrate pH” value ([3]; acid conc. .1 M, acid/base 1/1) is reported as 3.28. The Solubility ([3]; acid conc. .1 M, acid/base 1/1) was 4.73 mg base/ml, the “Filtrate pH” value ([3]; acid conc. .1 M, acid/base 2/1) was 3.00 and the Solubility [3, 5] was 4.13 mg base/ml. The “Filtrate pH” value [2] was 5.30 and the Solubility [2] was 2.55 mg base/ml.
With `COc1cc(NCc2ccc3nc(N)nc(N)c3c2C)cc(OC)c1OC` [Hydrochloride] the Solubility in water [2] was 3.22 mg base/ml.
In the case of `COc1cc(NCc2ccc3nc(N)nc(N)c3c2C)cc(OC)c1OC` [Isethionate, 2,4-Diamino-5-methyl-6-[(3,4,5-trimethoxyanilino)methyl]quinazoline monoisethionate], the “solid form (in words)” value [4] is reported as “crystalline”, the “stability (in words)” value [4] is reported as “stable” and the “Base Solubility in acid soln.” value ([3]; lines marked *: .05 M acid, 1/1 acid/base, listed as Isethionic) is reported as 17.3 mg base/ml. For the same compound, the “Base Solubility in acid soln.” value ([3]; 0.1 M acid per method (head: 1 M soln.), 0.05 M base, shaken 4-12 hours, UV 321 nm, listed as Isethionic) was 16.3 mg base/ml, the Solubility ([3]; acid conc. .05 M, acid/base 1/1, * not saturated (isethionic)) was 17.34 mg base/ml and the “Filtrate pH” value ([3]; acid conc. .05 M, acid/base 1/1, listed as Isethionic) was 3.70. The Solubility [3, 5] was 16.33 mg base/ml, the “Filtrate pH” value ([3]; acid conc. .1 M, acid/base 2/1, listed as Isethionic) was 1.83 and the Solubility in water [1] was 24.78 mg base/ml. For the same compound, the Solubility in water [2] was 23.93 mg base/ml, the “Filtrate pH” value ([2]; listed as Isethionic) was 5.30 and the Solubility ([2]; listed as Isethionic) was 24.8 mg base/ml. The “water solubility (in words)” value [2] was “highly water soluble”.
Work on `COc1cc(NCc2ccc3nc(N)nc(N)c3c2C)cc(OC)c1OC` [Lactate] yielded a Solubility in water [2] of 4.34 mg base/ml.
With `COc1cc(NCc2ccc3nc(N)nc(N)c3c2C)cc(OC)c1OC` [Methane sulfonic] the “Base Solubility in acid soln.” value [3, 7] was 6.49 mg base/ml, the “Base Solubility in acid soln.” value [3, 6] was 9.83 mg base/ml and the “Filtrate pH” value [3, 9] was 3.00. The Solubility [3, 9] was 6.5 mg base/ml, the Solubility ([3]; acid conc. .1 M, acid/base 1/.9) was 8.74 mg base/ml and the “Filtrate pH” value [2] was 5.32. For the same compound, the Solubility [2] was 4.9 mg base/ml.
In the case of `COc1cc(NCc2ccc3nc(N)nc(N)c3c2C)cc(OC)c1OC` [N--(Morpholine)ethane-2-sulfonic], the “Base Solubility in acid soln.” value [3, 6] is reported as 11.2 mg base/ml.
With `COc1cc(NCc2ccc3nc(N)nc(N)c3c2C)cc(OC)c1OC` [d-Tartaric] the “Base Solubility in acid soln.” value [3, 6] was 1.57 mg base/ml.
For `COc1cc(NCc2ccc3nc(N)nc(N)c3c2C)cc(OC)c1OC` [p-Toluene sulfonic], the “Base Solubility in acid soln.” value [3, 6] was 2.74 mg base/ml.
